We go through 16 compounds from patent publication US20230312576A1, “4-(7H-PYRROLO[2,3-D]PYRIMIDIN-4-YL)-3,6-DIHYDROPYRIDINE-1-(2H)-CARBOXAMIDE DERIVATIVES AS LIMK AND/OR ROCK KINASES INHIBITORS FOR USE IN THE TREATMENT OF CANCER” (CENTRE NATIONAL DE LA RECHERCHE SCIENTIFIQUE, priority 2020, published 2023).

Assay [1] has as its target ROCK1 (Homo sapiens (Human), UniProt Q13464). The assay can be described thus: Z'Lyte assay, ROCK1 inhibition at a single concentration. In kind it is biochemical.
For assay [2], the target named is ROCK2 (Homo sapiens (Human), UniProt O75116). The assay can be described thus: Z'Lyte assay, ROCK2 inhibition at a single concentration. In kind it is biochemical.
Sequence of ROCK2 (O75116 whole entry): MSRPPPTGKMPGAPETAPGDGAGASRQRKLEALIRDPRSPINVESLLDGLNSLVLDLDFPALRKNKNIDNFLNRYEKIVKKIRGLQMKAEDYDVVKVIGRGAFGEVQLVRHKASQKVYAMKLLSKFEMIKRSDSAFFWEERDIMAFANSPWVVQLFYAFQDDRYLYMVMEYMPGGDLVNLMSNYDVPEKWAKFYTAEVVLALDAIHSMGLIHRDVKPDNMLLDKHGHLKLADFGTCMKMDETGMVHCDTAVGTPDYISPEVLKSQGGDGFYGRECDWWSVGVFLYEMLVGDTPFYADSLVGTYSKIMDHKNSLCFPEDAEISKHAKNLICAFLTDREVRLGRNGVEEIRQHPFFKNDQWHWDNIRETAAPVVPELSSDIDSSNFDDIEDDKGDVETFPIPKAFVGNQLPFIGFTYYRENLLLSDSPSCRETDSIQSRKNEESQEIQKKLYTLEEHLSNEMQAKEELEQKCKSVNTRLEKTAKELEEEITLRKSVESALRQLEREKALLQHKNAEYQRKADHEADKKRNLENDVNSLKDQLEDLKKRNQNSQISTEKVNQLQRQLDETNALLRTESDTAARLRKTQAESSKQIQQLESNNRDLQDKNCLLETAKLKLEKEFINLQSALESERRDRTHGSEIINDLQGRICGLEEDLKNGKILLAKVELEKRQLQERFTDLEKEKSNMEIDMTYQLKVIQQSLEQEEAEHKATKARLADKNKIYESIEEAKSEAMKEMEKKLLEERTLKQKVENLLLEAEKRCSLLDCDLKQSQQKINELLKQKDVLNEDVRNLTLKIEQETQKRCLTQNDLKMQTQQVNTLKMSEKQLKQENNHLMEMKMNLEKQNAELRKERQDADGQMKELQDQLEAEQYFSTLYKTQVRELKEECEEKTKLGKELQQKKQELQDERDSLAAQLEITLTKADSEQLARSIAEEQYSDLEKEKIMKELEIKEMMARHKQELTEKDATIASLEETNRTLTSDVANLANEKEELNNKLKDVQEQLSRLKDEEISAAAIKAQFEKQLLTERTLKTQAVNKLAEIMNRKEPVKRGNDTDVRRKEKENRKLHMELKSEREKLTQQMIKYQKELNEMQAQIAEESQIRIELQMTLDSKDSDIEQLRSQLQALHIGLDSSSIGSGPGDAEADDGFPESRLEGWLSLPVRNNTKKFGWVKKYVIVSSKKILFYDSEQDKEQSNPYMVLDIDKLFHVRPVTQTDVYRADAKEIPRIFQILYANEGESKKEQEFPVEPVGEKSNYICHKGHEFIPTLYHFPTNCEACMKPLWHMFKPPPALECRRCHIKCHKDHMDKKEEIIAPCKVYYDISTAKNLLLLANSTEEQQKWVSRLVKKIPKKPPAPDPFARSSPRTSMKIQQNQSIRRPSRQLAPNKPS
For assay [3], the system named is cofilin phosphorylation, HeLa cells. The assay can be described thus: Cofilin phosphorylation by Western Blot (anti-phospho-Ser3-cofilin) in HeLa cells. In kind it is cell-based. The following applies: for inhibition at 25 µM: Homo sapiens. For orientation: A western blot detects proteins with antibodies after separation by electrophoresis.
Assay [4] relates to cofilin phosphorylation, MPNST88-14 cells. The assay can be described thus: Cofilin phosphorylation by Western Blot in MPNST88-14 cells. In kind it is cell-based.
Assay [5] addresses LIMK1 (Homo sapiens (Human), UniProt P53667). In words: Lanthascreen Eu binding assay (TR-FRET), inhibition of LIMK1.
Assay [6] has as its target LIMK2 (Homo sapiens (Human), UniProt P53671). In words: Lanthascreen Eu binding assay (TR-FRET), inhibition of LIMK2. In general terms: Time-resolved FRET reads energy transfer from a long-lived donor to a nearby acceptor.
Where [7] appears, read: read-out: % inhibition (ROCK1) 1 uM.
The mark [8] stands for this setting: read-out: % inhibition (ROCK2) 1 uM.
The mark [9] stands for this setting: HeLa, 2 h, read-out: % inhibition Cofilin phosphorylation HeLa cells treated 2 h with 25 uM of inhibitor.
[10] abbreviates: HeLa, 2 h, read-out: % inhibition of cofilin phosphorylation in HeLa cells (treatment 2 h, at 25 μM).
The mark [11] stands for this setting: 2 h, read-out: % inhibition Cofilin phosphorylation MPNST88-14 cells treated 2 h with 25 uM of inhibitor.
The mark [12] stands for this setting: read-out: % inhibition (ROCK1) 1 uM, 1 uM.
The mark [13] stands for this setting: read-out: % inhibition (ROCK2) 1 uM, 1 uM.
The mark [14] stands for this setting: read-out: % inhibition Cofilin phosphorylation HeLa cells treated 2 h with 25 uM of inhibitor, HeLa cells, 2 h, 25 uM.
[15] abbreviates: HeLa, 2 h, read-out: % inhibition of cofilin phosphorylation in HeLa cells (treatment 2 h, at 25 μM), Table 2, normalized to the control condition DMSO.

Where two headings read alike, the source gives them in different places.

For orientation: inhibition means the relative decrease from the control value, in per cent. One may read the Ki as the equilibrium dissociation constant of an inhibitor or competing ligand from its target.

Sequence of ROCK1 (Q13464 whole entry): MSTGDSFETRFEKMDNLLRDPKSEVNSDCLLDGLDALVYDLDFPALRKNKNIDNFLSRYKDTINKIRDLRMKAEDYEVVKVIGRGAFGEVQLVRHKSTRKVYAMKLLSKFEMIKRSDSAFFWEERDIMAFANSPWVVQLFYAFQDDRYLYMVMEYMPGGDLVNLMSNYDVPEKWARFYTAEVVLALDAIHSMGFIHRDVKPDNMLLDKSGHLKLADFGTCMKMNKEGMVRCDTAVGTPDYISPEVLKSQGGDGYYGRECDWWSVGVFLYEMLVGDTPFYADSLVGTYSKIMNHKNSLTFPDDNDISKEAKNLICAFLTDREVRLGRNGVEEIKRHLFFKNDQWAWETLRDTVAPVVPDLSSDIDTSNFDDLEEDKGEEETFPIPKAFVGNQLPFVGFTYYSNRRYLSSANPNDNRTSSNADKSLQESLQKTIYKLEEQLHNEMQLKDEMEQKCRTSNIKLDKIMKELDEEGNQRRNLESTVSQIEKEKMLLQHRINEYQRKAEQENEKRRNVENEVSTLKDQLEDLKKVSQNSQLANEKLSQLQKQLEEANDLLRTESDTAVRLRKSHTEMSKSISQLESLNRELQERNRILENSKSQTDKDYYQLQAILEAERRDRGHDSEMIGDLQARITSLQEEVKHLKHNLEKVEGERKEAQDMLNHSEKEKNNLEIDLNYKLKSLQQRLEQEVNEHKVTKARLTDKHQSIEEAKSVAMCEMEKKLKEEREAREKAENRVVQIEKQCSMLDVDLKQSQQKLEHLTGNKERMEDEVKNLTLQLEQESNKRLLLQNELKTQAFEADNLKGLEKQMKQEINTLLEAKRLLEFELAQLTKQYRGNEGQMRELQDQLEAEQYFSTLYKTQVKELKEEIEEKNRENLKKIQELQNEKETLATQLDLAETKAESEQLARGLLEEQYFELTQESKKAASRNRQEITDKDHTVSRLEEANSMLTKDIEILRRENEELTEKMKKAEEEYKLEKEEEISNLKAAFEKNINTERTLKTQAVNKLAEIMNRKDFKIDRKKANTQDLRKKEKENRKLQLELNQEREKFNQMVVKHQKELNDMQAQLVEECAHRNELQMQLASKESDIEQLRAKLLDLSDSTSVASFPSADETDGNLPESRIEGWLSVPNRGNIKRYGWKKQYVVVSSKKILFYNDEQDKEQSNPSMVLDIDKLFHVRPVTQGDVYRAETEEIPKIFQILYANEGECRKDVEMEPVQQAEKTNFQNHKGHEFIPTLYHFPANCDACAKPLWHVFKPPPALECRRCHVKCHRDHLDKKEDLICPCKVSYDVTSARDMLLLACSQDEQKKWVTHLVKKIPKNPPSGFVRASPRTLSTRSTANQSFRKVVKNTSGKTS
Sequence of LIMK1 (P53667 whole entry): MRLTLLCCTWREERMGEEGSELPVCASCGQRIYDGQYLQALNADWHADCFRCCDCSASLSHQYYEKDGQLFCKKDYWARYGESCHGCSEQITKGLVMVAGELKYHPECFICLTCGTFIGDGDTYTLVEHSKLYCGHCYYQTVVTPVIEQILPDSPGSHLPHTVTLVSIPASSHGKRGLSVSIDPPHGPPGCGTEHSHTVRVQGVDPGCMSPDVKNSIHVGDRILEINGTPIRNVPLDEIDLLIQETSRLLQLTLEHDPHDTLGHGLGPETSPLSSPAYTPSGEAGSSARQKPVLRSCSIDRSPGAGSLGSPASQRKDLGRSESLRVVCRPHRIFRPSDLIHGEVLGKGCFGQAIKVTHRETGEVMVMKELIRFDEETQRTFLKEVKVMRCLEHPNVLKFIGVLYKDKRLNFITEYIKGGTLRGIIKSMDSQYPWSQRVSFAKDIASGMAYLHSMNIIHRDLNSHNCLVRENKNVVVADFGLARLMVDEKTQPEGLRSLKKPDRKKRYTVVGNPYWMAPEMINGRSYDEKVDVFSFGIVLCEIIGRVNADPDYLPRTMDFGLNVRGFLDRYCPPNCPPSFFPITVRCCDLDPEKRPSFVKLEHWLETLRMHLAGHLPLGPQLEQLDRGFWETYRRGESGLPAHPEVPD
Sequence of LIMK2 (P53671 whole entry): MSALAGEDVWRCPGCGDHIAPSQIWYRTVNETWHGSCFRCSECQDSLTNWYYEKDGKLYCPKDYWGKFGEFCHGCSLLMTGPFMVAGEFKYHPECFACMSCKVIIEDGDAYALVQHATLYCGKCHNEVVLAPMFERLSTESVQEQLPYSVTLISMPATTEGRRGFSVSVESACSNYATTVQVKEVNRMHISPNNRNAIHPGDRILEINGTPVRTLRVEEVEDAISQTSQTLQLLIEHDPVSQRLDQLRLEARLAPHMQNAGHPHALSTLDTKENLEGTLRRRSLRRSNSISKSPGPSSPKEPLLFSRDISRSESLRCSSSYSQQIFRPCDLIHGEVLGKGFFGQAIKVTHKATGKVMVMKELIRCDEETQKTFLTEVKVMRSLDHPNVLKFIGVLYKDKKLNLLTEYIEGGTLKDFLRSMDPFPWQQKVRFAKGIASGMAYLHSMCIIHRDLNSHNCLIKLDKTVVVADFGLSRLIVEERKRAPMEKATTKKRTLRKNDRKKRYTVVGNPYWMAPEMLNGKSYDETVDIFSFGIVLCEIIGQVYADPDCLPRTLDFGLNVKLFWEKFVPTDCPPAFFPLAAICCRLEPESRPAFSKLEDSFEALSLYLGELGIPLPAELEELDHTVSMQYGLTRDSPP

Regarding `Cc1c[nH]c2ncnc(C3=CC(C)N(C(=O)Nc4cccc(Cl)c4)C(C)C3)c12` (centres unmarked) [Compound 58, N-(3-Chlorophenyl)-2,6-dimethyl-4-(5-methyl-7H-pyrrolo[2,3-d]pyrimidin-4-yl)-3,6-dihydropyridine-1(2H)-carboxamide], the values for the inhibition at 1 µM in assay [1] (setting [7]) and in assay [2] (setting [8]) were 34% and 32%, respectively. Also, the figures for the inhibition at 25 µM in assay [3] (setting [9]), in assay [3] (setting [10]) and in assay [4] (setting [11]) were 91.4%, 91.4% and 77.3%, respectively.

For the compound `O=C(Nc1cccc(F)c1)N1CC=C(c2ncnc3[nH]c4c(c23)CSCC4)CC1` [Compound 154, N-(3-Fluorophenyl)-4-(5,7,8,9-tetrahydrothiopyrano[3′,4′:4,5]pyrrolo[2,3-d]pyrimidin-4-yl)-3,6-dihydropyridine-1(2H)-carboxamide], the results for the Ki in assay [5] (Lanthascreen Eu binding assay) and in assay [6] (Lanthascreen Eu binding assay) were 52.7 nM and 78.6 nM, respectively. Further, the results for the inhibition at 1 µM in assay [1] (setting [12]) and in assay [2] (setting [13]) were 5% and 7%, respectively. Also, the inhibition at 25 µM in assay [3] (setting [14]) is 66.9%; in assay [4] (read-out: % inhibition Cofilin phosphorylation MPNST88-14 cells treated 2 h with 25 uM of inhibitor, MPNST88-14 cells, 25 uM), 57.7%.

For `O=C(Nc1ccccc1)N1CC=C(c2ncnc3[nH]c4c(c23)CCC4)CC1` [Compound 119, N-Phenyl-4-(5,6,7,8-tetrahydrocyclopenta[4,5]pyrrolo[2,3-d]pyrimidin-4-yl)-3,6-dihydropyridine-1(2H)-carboxamide], the Ki was 7.98 nM in assay [5] (Lanthascreen Eu binding assay) and 30.4 nM in assay [6] (Lanthascreen Eu binding assay). Besides, the figures for the inhibition at 1 µM in assay [1] (setting [7]) and in assay [2] (setting [8]) were 0% and 11%, respectively. The inhibition at 25 µM in assay [3] (setting [14]) was 64.1%.

With `Cc1c[nH]c2ncnc(C3=CCN(C(=O)Nc4cccc(-c5cccc(OCCCNS(C)(=O)=O)c5)c4)CC3)c12` [Compound 175, N-[3-[3-[3-(methanesulfonamido)propoxy]phenyl]phenyl]-4-(5-methyl-7H-pyrrolo[2,3-d]pyrimidin-4-yl)-3,6-dihydro-2H-pyridine-1-carboxamide], the values for the Ki in assay [5] (Lanthascreen Eu binding assay) and in assay [6] (Lanthascreen Eu binding assay) were 12 nM and 9.66 nM, respectively. Also, the inhibition at 1 µM in assay [1] (setting [12]) came to 43%; in assay [2] (setting [13]), 36%. The inhibition at 25 µM in assay [3] (setting [14]) was 98.1%.

In the case of `COCOCc1cccc(NC(=O)N2CC=C(c3ncnc4[nH]c5c(c34)CCC5)CC2)c1` [Compound 135, N-[3-(Methoxymethoxymethyl)phenyl]-4-(7,9,11-triaza-tricyclo[6.4.0.02,6]dodeca-1(8),2(6),9,11-tetraen-12-yl)-3,6-dihydropyridine-1(2H)-carboxamide], the Ki worked out at 22.1 nM in assay [5] (Lanthascreen Eu binding assay) and 36.2 nM in assay [6] (Lanthascreen Eu binding assay). Further, the values for the inhibition at 1 µM in assay [1] (setting [12]) and in assay [2] (setting [13]) were -14% and -3%, respectively. The inhibition at 25 µM in assay [3] (setting [15]) and in assay [3] (setting [14]) was 85% in each case.

Regarding `O=C(Nc1cccc(Cl)c1)N1CC=C(c2ncnc3[nH]c4c(c23)CCCCC4)CC1` [Compound 117, N-(3-Chlorophenyl)-4-(5,6,7,8,9,10-hexahydrocyclohepta[4,5]pyrrolo[2,3-d]pyrimidin-4-yl)-3,6-dihydropyridine-1(2H)-carboxamide], the Ki in assay [5] (Lanthascreen Eu binding assay) was 22 nM; in assay [6] (Lanthascreen Eu binding assay), 61.3 nM. The inhibition at 1 µM in assay [1] (setting [7]) is 4%; in assay [2] (setting [8]), 7%. In assay [3] (setting [14]), the inhibition at 25 µM turned out to be 69.2%.

On to `Cc1c[nH]c2ncnc(C3=CCN(C(=O)Nc4cccc(OCC5CCC(F)(F)CC5)c4)CC3)c12` [Compound 191, N-(3-((4,4-difluorocyclohexyl)methoxy)phenyl)-4-(5-methyl-7H-pyrrolo[2,3-d]pyrimidin-4-yl)-3,6-dihydropyridine-1(2H)-carboxamide], for which the Ki in assay [5] (Lanthascreen Eu binding assay) worked out at 85.5 nM; in assay [6] (Lanthascreen Eu binding assay), 217 nM. The results for the inhibition at 1 µM in assay [1] (setting [12]) and in assay [2] (setting [13]) were 72% and 57%, respectively. Also, the inhibition at 25 µM in assay [3] (setting [15]) came out at 87%.

Take `COc1cccc(Oc2cccc(NC(=O)N3CC=C(c4ncnc5[nH]cc(C6CC6)c45)CC3)c2)c1` [Compound 82, 4-(5-Cyclopropyl-7H-pyrrolo[2,3-d]pyrimidin-4-yl)-N-[3-(3-methoxyphenoxy)phenyl]-3,6-dihydropyridine-1(2H)-carboxamide]: the Ki in assay [5] (Lanthascreen Eu binding assay) was found to be 47.4 nM; in assay [6] (Lanthascreen Eu binding assay), 20.3 nM. Also, the values for the inhibition at 1 µM in assay [1] (setting [12]) and in assay [2] (setting [13]) were 16% and 11%, respectively. For the same compound, the inhibition at 25 µM in assay [3] (setting [15]) and in assay [3] (setting [14]) was 82.7% throughout.

As for `O=C(Nc1cccc(Br)c1)N1CC=C(c2ncnc3[nH]c4c(c23)CCCC4)CC1` [Compound 115, N-(3-Bromophenyl)-4-(6,7,8,9-tetrahydro-5H-pyrimido[4,5-b]indol-4-yl)-3,6-dihydropyridine-1(2H)-carboxamide], the Ki worked out at 5.37 nM in assay [5] and 16.2 nM in assay [6]. The inhibition at 1 µM worked out at 7% in assay [1] (setting [7]) and 11% in assay [2] (setting [8]). Also, the inhibition at 25 µM in assay [3] (setting [9]) and in assay [3] (setting [10]) was 81.8% in each case.

On to `COc1ccc(-c2cccc(NC(=O)N3CC=C(c4ncnc5[nH]c6c(c45)CCC6)CC3)c2)cc1` [Compound 136, N-[3-(4-Methoxyphenyl)phenyl]-4-(7,9,11-triaza-tricyclo[6.4.0.02,6]dodeca-1(8),2(6),9,11-tetraen-12-yl)-3,6-dihydropyridine-1(2H)-carboxamide], for which the Ki is 2.75 nM in assay [5] (Lanthascreen Eu binding assay) and 21.6 nM in assay [6] (Lanthascreen Eu binding assay). For the same compound, the inhibition at 1 µM stood at 6% in assay [1] (setting [12]) and 11% in assay [2] (setting [13]). In addition, the inhibition at 25 µM in assay [3] (setting [15]) and in assay [3] (setting [14]) was 85.5% throughout.

Consider `CNC(=O)c1cccc(NC(=O)N2CC=C(c3ncnc4[nH]c5c(c34)CCC5)CC2)c1` [Compound 133, N-[3-(Methylcarbamoyl)phenyl]-4-(7,9,11-triazatricyclo [6.4.0.02,6]dodeca-1(8),2(6),9,11-tetraen-12-yl)-3,6-dihydropyridine-1(2)-carboxamide], for which the values for the Ki in assay [5] (Lanthascreen Eu binding assay) and in assay [6] (Lanthascreen Eu binding assay) were 49.1 nM and 40.5 nM, respectively. Also, the “% inhibition (ROCK1) 1 uM” value in assay [1] (1 uM) is given as −19%. In addition, in assay [2] (1 uM), the “% inhibition (ROCK2) 1 uM” value was found to be 1%. The “% inhibition Cofilin phosphorylation HeLa cells treated 2 h with 25 uM of inhibitor” value in assay [3] (HeLa cells, 2 h, 25 uM) came to 78.8%. In assay [3] (Table 2, normalized to the control condition DMSO), the “% inhibition of cofilin phosphorylation in HeLa cells (treatment 2 h, at 25 μM)” value is listed as 78.8%.

Consider `O=C(Nc1cccc(Cl)c1)N1CC=C(c2ncnc3[nH]c4c(c23)CCC4)CC1` [Compound 111, N-(3-Chlorophenyl)-4-(5,6,7,8-tetrahydrocyclopenta[4,5]pyrrolo[2,3-d]pyrimidin-4-yl)-3,6-dihydropyridine-1(2H)-carboxamide], for which the Ki in assay [5] (Lanthascreen Eu binding assay) was found to be 5.78 nM; in assay [6] (Lanthascreen Eu binding assay), 25.5 nM. In addition, the inhibition at 1 µM in assay [1] (setting [7]) amounted to 10%; in assay [2] (setting [8]) it was 14%. Besides, the inhibition at 25 µM in assay [3] (setting [15]) and in assay [3] (setting [14]) was 82.3% throughout.

As for `Cc1c[nH]c2ncnc(C3=CC(C)N(C(=O)Nc4cccc(Br)c4)C(C)C3)c12` (centres unmarked) [Compound 59, N-(3-Bromophenyl)-2,6-dimethyl-4-(5-methyl-7H-pyrrolo[2,3-d]pyrimidin-4-yl)-3,6-dihydropyridine-1(2H)-carboxamide], the inhibition at 1 µM worked out at 34% in assay [1] (setting [7]) and 40% in assay [2] (setting [8]). Besides, the values for the inhibition at 25 µM in assay [3] (setting [9]), in assay [3] (setting [10]) and in assay [4] (setting [11]) were 93.6%, 93.6% and 74.7%, respectively.

Consider `N#Cc1cccc(NC(=O)N2CC=C(c3ncnc4[nH]c5c(c34)CCC5)CC2)c1` [Compound 127, N-(3-Cyanophenyl)-4-(7,9,11-triazatricyclo[6.4.0.02,6]dodeca-1(8),2(6),9,11-tetraen-12-yl)-3,6-dihydropyridine-1(2H)-carboxamide], for which the inhibition constant (Ki) in assay [5] (Lanthascreen Eu binding assay) was determined as 8.19 nM; in assay [6] (Lanthascreen Eu binding assay) it was 39.3 nM. Further, the results for the inhibition at 1 µM in assay [1] (setting [12]) and in assay [2] (setting [13]) were 3% and 20%, respectively. Also, in assay [3] (setting [14]), the inhibition at 25 µM came out at 68.5%.

Regarding `O=C(Nc1cccc(F)c1)N1CC=C(c2ncnc3[nH]c4c(c23)CCCCC4)CC1` [Compound 116, N-(3-Fluorophenyl)-4-(5,6,7,8,9,10-hexahydrocyclohepta[4,5]pyrrolo[2,3-d]pyrimidin-4-yl)-3,6-dihydropyridine-1(2H)-carboxamide], the inhibition constant (Ki) in assay [5] (Lanthascreen Eu binding assay) came out at 16.5 nM; in assay [6] (Lanthascreen Eu binding assay), 64 nM. For the same compound, the inhibition at 1 µM in assay [1] (setting [12]) is -8%; in assay [2] (setting [13]), -7%. Further, the inhibition at 25 µM in assay [3] (setting [15]) and in assay [3] (setting [14]) was 73.1% throughout.

Consider `CN(C)Cc1cccc(NC(=O)N2CC=C(c3ncnc4[nH]c5c(c34)CCC5)CC2)c1` [Compound 132, N-[3-[(dimethylamino)methyl]phenyl]-4-(7,9,11-triaza-tricyclo[6.4.0.02,6]dodeca-1(8),2(6),9,11-tetraen-12-yl)-3,6-dihydropyridine-1(2H)-carboxamide], for which the Ki was 389 nM in assay [5] (Lanthascreen Eu binding assay) and 415 nM in assay [6] (Lanthascreen Eu binding assay). Moreover, the inhibition at 1 µM in assay [1] (setting [12]) is -6%; in assay [2] (setting [13]) it was 2%. Besides, the inhibition at 25 µM in assay [3] (setting [15]) and in assay [3] (setting [14]) was 76.2% in each case.
